Test results from patent US20240174669A1, “CRYSTALLINE FORMS OF A PARP1 INHIBITOR” (XinThera, Inc., priority 2022, published 2024).
Values after ≈ are worked out from the molar mass of the structure shown. Like-named read-outs stand apart in the source and are kept apart here.

Assays:
Assay type in all cases: physicochemical
[1] = Solubility in bio-relevant media, water and pH buffers (HPLC of filtrate, XRPD of filter cake); conditions: for solubility at 0.5 h / solubility at 2 h / solubility at 24 h / solubility / solubility at 4 h / solubility at 8 h: thermodynamic from solid; for solubility at 0.5 h: read-out: Solubility (mg/mL) 0.5 h; for solubility at 2 h: read-out: Solubility (mg/mL) 2 h; for solubility at 24 h: read-out: Solubility (mg/mL) 24 h; for Solubility (mg/mL) 0.5 h / Solubility (mg/mL) 2 h / Solubility (mg/mL) 4 h / Solubility (mg/mL) 8 h: listed as Freebase Form II (Lot #2); for solubility at 4 h: read-out: Solubility (mg/mL) 4 h; for solubility at 8 h: read-out: Solubility (mg/mL) 8 h
Description: About 15 mg of freebase Form II was weighed into sample vials, and then 3 mL of each media was added to make suspensions, respectively. […] Duplicated samples were prepared for each media.
HPLC analysis was performed with an Agilent HPLC 1260 series instrument.

[2] = Solubility in 0.5% MC and 0.5% MC pH 3 citrate buffer; conditions: for solubility: thermodynamic from solid
Description: Solubility of freebase Form II was first measured in 0.5% MC (400 cPs) and 0.5% MC (400 cPs) pH 3 citrate buffer. About 5 mg of Form II (Lot#1) was stirred in 1 mL of media at RT for ˜2 hours. The suspension was filtered, with filtrates analyzed by HPLC and remaining solids tested by XRPD. […] Therefore, 0.5% MC pH 3 buffer was selected for suspension formulation stability study.

[3] = Suspension formulation stability in 0.5% MC pH 3 buffer
Description: About 9 mg of free base Form II (Lot#1) was added into 0.3 mL of 0.5% MC pH 3 buffer, and stirred at RT for 30 min to make a suspension with 30 mg/mL drug loading (Day 0 sample). The suspension samples in vials, prepared at the same time, were kept at RT for 3 or 7 days. At each time point, the whole suspension in a vial was dissolved in 8.7 mL water/ACN (1:1, v/v) and then was analyzed by HPLC. Sedimentation of suspension was checked by visual observation, and the solids in another vial were tested by PLM and XRPD.

[4] = 0.5% MC pH 3 buffer (100 mM citrate), RT, ~2 hours
[5] = 0.5% MC pH 3 citrate buffer, up to 7 days

With `CNC(=O)c1ccc(N2CCN(Cc3cnc4cc(C5CC5)c(=O)[nH]c4c3)CC2)cn1` [Freebase Form II, 5-(4-((7-cyclopropyl-6-oxo-5,6-dihydro-1,5-naphthyridin-3-yl)methyl)piperazin-1-yl)-N-methylpicolinamide] the solubility at 0.5 h ([1]; FaSSIF, 37 °C, pH 6.45, fassif, FaSSIF, initial pH 6.45, 37° C., 800 rpm, 0.5 h) was 0.016 mg/mL (≈ 38.2 µM), the solubility at 2 h ([1]; FaSSIF, 37 °C, pH 6.45, fassif, FaSSIF, initial pH 6.45, 37° C., 800 rpm, 2 h) was 0.025 mg/mL (≈ 59.7 µM) and the solubility at 24 h ([1]; FaSSIF, 37 °C, pH 6.45, fassif, FaSSIF, initial pH 6.45, 37° C., 800 rpm) was 0.028 mg/mL (≈ 66.9 µM). The solubility ([1]; FaSSIF, 37 °C) was ~20 µg/mL (≈ 47.8 µM), the “Solubility (mg/mL) 0.5 h” value ([1]; FaSSIF, initial pH 6.50, 0.5 h) was 0.015 mg/mL (≈ 35.8 µM) and the “Solubility (mg/mL) 2 h” value ([1]; FaSSIF, initial pH 6.50, 2 h) was 0.015 mg/mL (≈ 35.8 µM). For the same compound, the “Solubility (mg/mL) 4 h” value ([1]; FaSSIF, initial pH 6.50, 4 h) was 0.017 mg/mL (≈ 40.6 µM), the “Solubility (mg/mL) 8 h” value ([1]; FaSSIF, initial pH 6.50, 8 h) was 0.016 mg/mL (≈ 38.2 µM) and the solubility at 0.5 h ([1]; FaSSIF, pH 6.5, fassif, FaSSIF, initial pH 6.50, 0.5 h) was 0.016 mg/mL (≈ 38.2 µM). For the same compound, the solubility at 2 h ([1]; FaSSIF, pH 6.5, fassif, FaSSIF, initial pH 6.50, 2 h) was 0.017 mg/mL (≈ 40.6 µM), the solubility at 4 h ([1]; FaSSIF, pH 6.5, fassif, FaSSIF, initial pH 6.50, 4 h) was 0.021 mg/mL (≈ 50.2 µM) and the solubility at 8 h ([1]; FaSSIF, pH 6.5, fassif, FaSSIF, initial pH 6.50, 8 h) was 0.023 mg/mL (≈ 55 µM). The solubility at 0.5 h ([1]; FeSSIF, 37 °C, pH 4.89, fessif, FeSSIF, initial pH 4.89, 37° C., 800 rpm, 0.5 h) was 0.087 mg/mL (≈ 208 µM), the solubility at 2 h ([1]; FeSSIF, 37 °C, pH 4.89, fessif, FeSSIF, initial pH 4.89, 37° C., 800 rpm, 2 h) was 0.101 mg/mL (≈ 241 µM) and the solubility at 24 h ([1]; FeSSIF, 37 °C, pH 4.89, fessif, FeSSIF, initial pH 4.89, 37° C., 800 rpm) was 0.12 mg/mL (≈ 287 µM). The solubility ([1]; FeSSIF, 37 °C, pH 4.98, fessif) was ~100 µg/mL (≈ 239 µM), the solubility at 8 h ([1]; FeSSIF, 37 °C, pH 4.98, fessif, FeSSIF, initial pH 4.98, 8 h) was 0.105 mg/mL (≈ 251 µM) and the “Solubility (mg/mL) 0.5 h” value ([1]; FeSSIF, initial pH 4.98, 0.5 h) was 0.087 mg/mL (≈ 208 µM). For the same compound, the “Solubility (mg/mL) 2 h” value ([1]; FeSSIF, initial pH 4.98, 2 h) was 0.089 mg/mL (≈ 213 µM), the “Solubility (mg/mL) 4 h” value ([1]; FeSSIF, initial pH 4.98, 4 h) was 0.096 mg/mL (≈ 229 µM) and the “Solubility (mg/mL) 8 h” value ([1]; FeSSIF, initial pH 4.98, 8 h) was 0.101 mg/mL (≈ 241 µM). For the same compound, the solubility at 0.5 h ([1]; FeSSIF, pH 4.98, fessif, FeSSIF, initial pH 4.98, 0.5 h) was 0.085 mg/mL (≈ 203 µM), the solubility at 2 h ([1]; FeSSIF, pH 4.98, fessif, FeSSIF, initial pH 4.98, 2 h) was 0.09 mg/mL (≈ 215 µM) and the solubility at 4 h ([1]; FeSSIF, pH 4.98, fessif, FeSSIF, initial pH 4.98, 4 h) was 0.097 mg/mL (≈ 232 µM). The solubility at 0.5 h ([1]; SGF, 37 °C, pH 1.27, simulated gastric fluid, SGF, initial pH 1.27, 37° C., 800 rpm, 0.5 h) was > 5 mg/mL, the solubility at 2 h ([1]; SGF, 37 °C, pH 1.27, simulated gastric fluid, SGF, initial pH 1.27, 37° C., 800 rpm, 2 h) was > 5 mg/mL and the solubility at 24 h ([1]; SGF, 37 °C, pH 1.27, simulated gastric fluid, SGF, initial pH 1.27, 37° C., 800 rpm) was > 5 mg/mL. The solubility ([1]; SGF, 37 °C, simulated gastric fluid) was > 5000 µg/mL, the “crystalline form during solubility test (XRPD of filter cake)” value ([1]; all media, up to 24 hours) was “remained unchanged” and the solubility ([1]; pH 5.0 buffer, 37 °C, pH 5, aqueous buffer) was ~50 µg/mL (≈ 119 µM). For the same compound, the solubility at 0.5 h ([1]; pH 5.0 buffer, 37 °C, pH 5, aqueous buffer, pH 5.0 buffer, initial pH 4.94, 37° C., 800 rpm, 0.5 h) was 0.045 mg/mL (≈ 108 µM), the solubility at 2 h ([1]; pH 5.0 buffer, 37 °C, pH 5, aqueous buffer, pH 5.0 buffer, initial pH 4.94, 37° C., 800 rpm, 2 h) was 0.05 mg/mL (≈ 119 µM) and the solubility at 24 h ([1]; pH 5.0 buffer, 37 °C, pH 5, aqueous buffer, pH 5.0 buffer, initial pH 4.94, 37° C., 800 rpm) was 0.061 mg/mL (≈ 146 µM). For the same compound, the solubility ([1]; pH 6.5 buffer, 37 °C, pH 6.5, aqueous buffer) was ~10 µg/mL (≈ 23.9 µM), the solubility at 0.5 h ([1]; pH 6.5 buffer, 37 °C, pH 6.5, aqueous buffer, pH 6.5 buffer, initial pH 6.43, 37° C., 800 rpm, 0.5 h) was 0.007 mg/mL (≈ 16.7 µM) and the solubility at 2 h ([1]; pH 6.5 buffer, 37 °C, pH 6.5, aqueous buffer, pH 6.5 buffer, initial pH 6.43, 37° C., 800 rpm, 2 h) was 0.008 mg/mL (≈ 19.1 µM). For the same compound, the solubility at 24 h ([1]; pH 6.5 buffer, 37 °C, pH 6.5, aqueous buffer, pH 6.5 buffer, initial pH 6.43, 37° C., 800 rpm) was 0.01 mg/mL (≈ 23.9 µM), the solubility at 0.5 h ([1]; water, 37 °C, pH 4.18, water, Water, initial pH 4.18, 37° C., 800 rpm, 0.5 h) was 0.007 mg/mL (≈ 16.7 µM) and the solubility at 2 h ([1]; water, 37 °C, pH 4.18, water, Water, initial pH 4.18, 37° C., 800 rpm, 2 h) was 0.008 mg/mL (≈ 19.1 µM). The solubility at 24 h ([1]; water, 37 °C, pH 4.18, water, Water, initial pH 4.18, 37° C., 800 rpm) was 0.01 mg/mL (≈ 23.9 µM), the solubility ([1]; water, 37 °C) was ~10 µg/mL (≈ 23.9 µM) and the solubility ([2]; 0.5% MC (400 cPs) pH 3 citrate buffer, pH 3, aqueous with cosolvent or surfactant or cyclodextrin, 0.5% MC pH 3 buffer (100 mM citrate), initial pH 3.0, RT, ~2 hours) was 4500 µg/mL (≈ 10800 µM). For the same compound, the solubility ([2]; 0.5% MC (400 cPs), aqueous with cosolvent or surfactant or cyclodextrin, 0.5% MC, RT, ~2 hours) was < 10 µg/mL, the solubility ([2]; 0.5% MC (400 cPs), aqueous with cosolvent or surfactant or cyclodextrin, RT, ~2 hours) was 6 µg/mL (≈ 14.3 µM) and the “Filtrate Purity 254 nm” value [2, 4] was 99.25%. For the same compound, the “XRPD of remaining solids” value [2, 4] was “Unchanged”, the “form change (XRPD)” value ([2]; both media: 0.5% MC and 0.5% MC pH 3 citrate buffer) was “No form change was observed” and the “crystalline form in suspension” value [3, 5] was “remained unchanged”. For the same compound, the “purity change in suspension” value [3, 5] was “no purity decrease was observed”, the “Purity (area %, 220 nm) Initial” value ([3]; initial, before suspension) was 99.25 area % and the “sedimentation of suspension (visual observation)” value ([3]; kept at RT for 3 or 7 days, homogeneous again after swirling 1 min) was “Sedimentation was observed”. The “Purity (area %, 220 nm) Day 0” value ([3]; suspension in 0.5% MC pH 3 buffer (100 mM citrate), 30 mg/mL, RT, Day 0) was 99.30 area % and the “Purity (area %, 220 nm) Day 3” value ([3]; suspension in 0.5% MC pH 3 buffer (100 mM citrate), 30 mg/mL, RT, Day 3) was 99.28 area %.
